Reference: BindingDB's records for doi:10.1021/jm00019a006 (Glaxo Wellcome Medicines Research Centre, 1995)

Assay: The compound was tested for binding affinity against Tachykinin receptor 1 from rabbit cortex

Compound O=C1OC2(CCN(CCc3c[nH]c4ccc(F)cc34)CC2)CN1Cc1ccccc1 has a Ki of 7.94 µM.
